Reference: US20210153484A1, “Humanized Mouse Model” (The Wistar lnstitute, priority 2018, published 2021)
Entries after “also recorded” stand apart in the source; their conditions may differ.

Key:
human γ/δ+ T-cells = assay: Human T γ/δ cells in reconstituted Hu-mice treated with HMBPP (IHC); format: in vivo, mouse; settings: HMBPP 50 mg/kg i.p.
Text: FIGS. 6A-6C illustrate the human immune subpopulation in spleen, thymus, lymph node, small intestines (SI) and lungs of humanized mice. […] Mouse SI and lungs show presence of IgA+ and IgE+ cells (left and right panels) as determined by mouse anti-human IgA or […] antibodies. Minimal staining of mouse cells was observed when the tissue sections were stained with anti-mouse specific antibodies (See FIG. 23). […] Mouse spleen (left panels; a), thymus (middle panels) and mesenteric lymph nodes (right panels) show presence of CD4+ (top panels) and CD8+ (bottom panels) T-cells as determined by IHC staining using anti-human CD4 or CD8 antibodies. […] Presence of T γ/δ cells were determined in a IHC staining by using mouse anti-human TcR γ/δ antibody.
Besides the presence of human CD45+ cells, the presence of monocytes/myeloid lineage cells HLA DR+, CD33+, CD15+, CD11b+ and CD14+ was observed (FIG. 5D). […] B-cells are fully functional, as antigen specific IgG were detected in circulating blood (see anti-hTERT response below), and IgA and IgE with unknown specificity in the mucosal layers of small intestines and the lungs (FIG. 6B, FIG. 23). Human CD4+ and CD8+ subpopulations of T-cells were detected in spleen, thymus and mesenteric lymph node tissues (FIG. 6C). […]

[1] = test system: WM3629 [HLA-A3] melanoma cells; assay: Anti-PD1 therapy in Hu-mice melanoma model, WM3629 tumors; format: in vivo, mouse; settings: anti-PD1 10 mg/kg i.p. weekly
Description: (§1) FIGS. 8A-8H illustrate functional characterization of human immune cells in humanized mice. FIGS. 8A-8C show T- and B-cell response to hTERT vaccine. FIG. 8A is a schema for hTERT DNA vaccination. Hu-mice received a total of 3 injections of hTERT vaccine (hTERT DNA [50 μg; i.m] followed by electroporation) every 2 weeks and the mice were sacrificed 1 week after the last injection to determine T- and B-cell responses. […] Spleen cells from Hu-mice (n=3) were stimulated overnight (18 h) with pools of overlapping hTERT peptides (15 mer; 2 μg/ml/peptide) spanning the entire hTERT protein. Human IFNγ was detected in ELISPOT assay using a kit. […] Endpoint binding titer was determined in sera of hTERT vaccinated mice after 3 immunizations and compared to sera from NSG mice as controls. […] Tumor growth measurements are recorded using digital caliper by an independent researcher. […]
(§2) All animal experiments were performed according to protocols approved by the Wistar Institute's Institutional Animal Care and User Committee (IACUC). […] Six to 8 weeks (>50 days) later, presence of human immune cells was monitored by multi-color flow cytometry using 18 color BD LSR II Analyzer (BD Biosciences; Somasundaram et al. Nat. Commun. 2017, 8(1):607). […] Tumors were measured twice a week using digital calipers.

[2] = test system: A375 [HLA-A2] melanoma cells; assay: Anti-PD1 therapy in Hu-mice melanoma model, A375 tumors; format: in vivo, mouse; settings: anti-PD1 10 mg/kg i.p. weekly
Description: as §1, §2

[3] = test system: tumor-infiltrating immune cells; assay: IHC, MassCyTOF and RNA-seq/CIBERSORT analysis of tumors from anti-PD1 treated Hu-mice; format: in vivo, mouse
Description: (§3) IHC staining was performed as previously described (Somasundaram et al 2017). Briefly, tissue sections were subjected to antigen retrieval by incubation with Target Retrieval Solution (Citrate [S1699] or Tris-EDTA buffers [S2367]; Agilent-DAKO, Santa Clara, Calif.) kit at 95° C. for 20 min and subsequently incubated with primary antibodies with optimum dilutions (FOXP3 [1:10]; CD4, HLA class I, HMB45 and mast cell tryptase [all at 1:100 dilution]; CD68, IgA and IgE [all at 1:400 dilution] and CD8 [1:500 dilution]. For detection of primary antibodies slides were incubated with anti-mouse, anti-rat or anti-rabbit antibodies at 1:1000 dilution and visualized by DAB (SK-4100) or AEC (SK-4200; both Vector Laboratories, Burlingame, Calif.) chromogens.
CyTOF staining was performed as previously described (Wang et al 2019). Briefly, carrier-free antibodies were commercially obtained and tagged with lanthanide metals using the Maxpar X8 metal conjugation kit from Fluidigm^R (201300, Ontario, Canada). Antigen retrieval was performed on deparaffinized tissue sections at 95° C. for 30 min in Tris/EDTA buffer, slides were cooled, blocked with 3% BSA-PBS solution and incubated with cocktail of antibodies (100 ul) overnight at 4° C. Next day slides were washed 3× with PBS and labeled with 1:400 dilution of Intercalator-Ir (Fluidigm 201192B) in PBS for 30 min at RT. Slides were washed with water (3×) and air dried for 30 mins before image mass cytometry acquisition using Fluidigm Hyperion Imaging System.
RNAseq was done using ScriptSeq RNA-seq library preparation kit (Illumina, [BHMR1205], San Diego, Calif.). Quality control of RNA and DNA library was done using the Tapestation 4200 and Bioanalyzer 2100 system (Agilent, Santa Clara, Calif.). Library quantification was done using the Kapa Library Quantification qPCR kit (Roche, [KK4854], Pleasanton, Calif.) and subjected to a 75 bp paired-end sequencing run on Illumina's NExtSeq 500 high output kit following the manufacturer's protocol. RNA-seq analysis was performed using RSEM v1.2.12 software and downstream expression analysis was done using Differential2 (Shuai Wu et al. Nature Commun. 2018; 9: 4166). RNA-seq data was used to enumerate tumor-infiltrating leukocytes using CIBERSORT, an analytical tool available online (cibersort.stanford.edu) (Chen et al. Methods Mol. Biol. 2018; 1711:243-259).
In order to understand the phenomenon of mixed therapy responses to anti-PD1 treatment, IHC, multiplexed imaging using MassCyTOF and RNA-seq was performed on tumors obtained from anti-PD1 treated Hu-mice and they were compared with control Ig treated mice. […]

451LU melanoma = assay: Anti-PD1 therapy in Hu-mice melanoma model, aggressively growing 451LU tumors; format: in vivo, mouse
Description: All animal experiments were performed according to protocols approved by the Wistar Institute's Institutional Animal Care and User Committee (IACUC). NOD/LtSscidIL2Rγ^null (NSG) mice were inbred at The Wistar Institute under license from the Jackson Laboratory. For humanization, fetal liver and thymus were obtained from the same donor (18-22 weeks of gestation). NSG mice (6 to 8 weeks) received thymus graft (1 mm^3) in sub-renal capsule 24 h post myeloablation using Busulfan (30 mg/kg, i.p.; Sigma-Aldrich [B2635], St. Louis, Mo.). This is immediately followed by injection of autologous liver-derived CD34^+ hematopoietic stem cells (10^5 cells/mouse, i.v., FIG. 5A) that was magnetically sorted by microbeads conjugated with anti-human CD34 (Miltenyi Biotec., [130-046-703], Auburn, Calif.; Chen et al. Bio Protoc. (2013) 3(23)). Six to 8 weeks (>50 days) later, presence of human immune cells was monitored by multi-color flow cytometry using 18 color BD LSR II Analyzer (BD Biosciences; Somasundaram et al. Nat. Commun. 2017, 8(1):607). To accelerate human immune cell reconstitution mice received AAV8 encoding human IL-3, IL-7 and GM-CSF (FIG. 5; FIG. 20A; 10^8; iv; Wu, . . . Ertl., et al 2013). […] Tumors were measured twice a week using digital calipers.

mast cells in tumor = assay: Mast cell immunostaining of melanoma patients' tumors after anti-PD1 therapy; format: in vivo, human; settings: compared to untreated individuals
Description: as §3

[4] = compared to control IgG or non-reconstituted NSG mice treated with anti-PD1, listed as Anti-PD1 antibody
[5] = compared to control IgG or non-reconstituted NSG mice treated with anti-PD1, listed as anti-PD1 antibody

Row | Compound | human T γ/δ cells in tissues (human γ/δ+ T-cells) | tumor growth of WM3629 melanoma [1, 4] | tumor growth of WM3629 melanoma [1, 5] | tumor growth of A375 melanoma [2, 4] | tumor growth of A375 melanoma [2, 5] | immune (leukocyte) infiltration in tumor sections ([3]; H&E/IHC, compared to control IgG treated / untreated Hu-mice) | transcription of chemokine genes (CCL2, CCL3, CCL4, CCLS, CXCL9, CXCL10 and CXCL11) ([3]; RNA-seq of tumors after anti-PD1 treatment) | mast cell numbers in tumors (mast cell tryptase IHC) ([3]; compared to control Ig treated mice) | tumor resident mast cells / mast related genes by CIBERSORT of RNA-seq data ([3]; tumors from Hu-mice with and without anti-PD1) | immune infiltrating cells by IHC staining (451LU melanoma; 451Lu tumors in Hu-mice after anti-PD1) | tumor growth of 451LU melanoma (451LU melanoma; Hu-mice, aggressively growing metastatic melanoma) | mast cells in melanoma patients' tumor (mast cells in tumor)
1 | C/C(=C\COP(=O)(O)OP(=O)(O)O)CO [HMBPP, hydroxy-2-methyl-2-butenyl 4-pyrophosphate] | further expanded |  |  |  |  |  |  |  |  |  |  | 
2 | anti-PD1: anti-PD-1 antibody (Keytruda, Merck, Rahway, N.J.) |  | restrict tumor growth | significantly restricted tumor growth | restrict tumor growth | significantly restricted tumor growth | Higher levels of immune infiltration; also recorded: dense leukocyte infiltration | higher transcription | increased numbers | higher presence of tumor resident mast cells; also recorded: higher expression of mast related genes | No immune infiltrating cells were detected | negligible effect on growth; also recorded: unable to restrict tumor growth | increased presence of mast cells
